Series [1] deals with P493-6 (myc "on") cells. In words: Cell proliferation assay. The format is cell-based. The following applies: read-out: Cell prolif P493 72 h IC50. How it is done: P493-6 (myc “on”) cells were maintained in growth media (RPMI-1640, 10% FBS, 2 mM glutamine, 100 units/ml Penicillin and 100 μg/ml streptomycin) at 37° C. with 5% CO2. For compound assay, P493-6 cells were plated in 96-well V-bottom plates on the day of compound addition in 50 μl of growth media at a cell density of 200,000 cells/ml (10,000 cells/well). Compounds were serially diluted in 100% DMSO at 200-times the final concentration. Compounds were diluted 100-fold into growth media and then 50 μl of this mixture was added to cell plates making the final concentration of DMSO 0.5%. Cells were incubated with compound for 72 hrs at 37° C. with 5% CO2 and analyzed for antiproliferative effects either by Cell Titer Glo (Promega) or FACS analysis using the Viacount (Millipore) kit on the Guava instrument.

Series [2] deals with Caco-2 cell monolayers. Kind of series: Caco-2 permeability assay. The format is in vitro ADME, human. The text has this: Caco-2 cells are commonly used in a confluent monolayer on a cell culture insert filter. When cultured in this format and under specific conditions, the cells become differentiated and polarized such that their phenotype, morphologically and functionally resembles the enterocytes lining the small intestine. The cell monolayer provides a physical and biochemical barrier to the passage of small molecules, and is widely used across the pharmaceutical industry as an in vitro model of the human small intestinal mucosa to predict the absorption of orally administered drugs (Hidalgo et al., Gastroenterology, 1989; Artursson, J. Pharm. Sci., 1990). The correlation between the in vitro apparent permeability (P ? app) across Caco-2 monolayers and the in vivo absorption is well established (Artursson et al., Biochem. Biophys. Res. Comm., 1991).
The present assay was used to determine the bidirectional permeability of the compounds of the invention through Caco-2 cell monolayers. Caco-2 cells were grown in confluent monolayers where the media of both the apical (A) and basolateral (B) sides were at pH 7.4. Compounds were dosed at 1 μM in the presence of 200 μM Lucifer Yellow, on the apical side (A→B) or the basolateral side (B→A) for assessment, in duplicate.
The absorption potential of compounds were classified as either Low (P-app<1×10^−6 cm/s) or High (P-app>1×10^−6 cm/s).
(In general: Caco-2 monolayers are a common model of the intestinal barrier.)

A short description of series [3]: Pharmacokinetic studies in mice. The following applies: female, CD-1, mouse, plasma, po. The format is in vivo. How it is done:
For PK studies performed in mice, female CD-1 mice, age 5-8 weeks, were dosed orally by gavage (10 mL/kg volume) with test compounds. At pre-determined time-points (e.g. 1, 3, and 6 hrs) post-dosing, groups of three mice were sacrificed by CO2 inhalation and blood collected via cardiac puncture. Blood samples were placed into K2 EDTA coated tubes and kept on ice. Samples were centrifuged at 2000×g for 10 minutes at 4° C. and plasma isolated. Plasma was stored at ˜70° C. until bioanalytical analysis.
(§1) The plasma samples were analyzed using Liquid chromatography tandem mass spectrometry (LC/MS/MS) methods. Frozen plasma samples were thawed on ice or room temperature. Aliquotes of study plasma samples and calibration samples prepared in the same matrix as the study samples were quenched in an organic solvent (methanol, acetonitrole or DMF) containing an internal standard. The mixtures were then centrifuged and filtered and the filtrates were injected to an LC/MS/MS system to determine concentrations of test compounds.

The subject of series [4] is H2122 lung adenocarcinoma xenograft. Kind of series: Lung adenocarcinoma xenograft efficacy study. In kind it is in vivo, mouse. The following applies: 200 mg/kg orally BID for 23 days. As for the experimental part: Female scid/beige mice (n=20) age 6-8 weeks were implanted subcutaneously with 1×10^7 H2122 lung adenocarcinoma cells per mouse suspended in PBS. […] For both groups, dosing was initiated 24 hours post-implant and continued orally BID for 23 days. Tumors were measured with calipers three times per week and tumor volume calculated using the formula tumor volume (mm^3)=(a×b^2/2) where ‘b’ is the smallest diameter and ‘a’ is the largest perpendicular diameter. **P-value <0.01 (Two-sided T-test).

A short description of series [5]: Pharmacokinetic studies in rats. In kind it is in vivo. The following applies: female, Sprague-Dawley, plasma, Rat. As for the experimental part: For PK studies performed in rats, groups of three female Sprague-Dawley Rats, age 7-10 weeks, with jugular vein cannulae were dosed orally by gavage (5-10 mL/kg) with test compounds. Serial blood samples were collected via the jugular vein cannulae at multiple time-points pre and post-dose. Blood samples were placed into K2 EDTA coated tubes on kept on ice. Samples were centrifuged at 2500×g for 10 minutes at 4° C. and plasma isolated. Plasma was stored at ˜70° C. until bioanalytical analysis.
as §1

The test system of series [6] is RPMI-8226 multiple myeloma xenograft. Kind of series: Multiple myeloma xenograft study. In kind it is in vivo, mouse. The following applies: RPMI-8226 xenograft, 200 mg/kg orally BID for 28 days. How it is done:
Female CB.17 SCID mice (n=20) age 8-12 weeks were implanted subcutaneously with 1×10^7 RPMI-8226 myeloma cells per mouse mixed 1:1 with Matrigel. […] For both groups, dosing was initiated when tumors reached a volume of 100-150 mm^3 and continued orally BID for 28 days. Tumors were measured with calipers two times per week and tumor volume calculated using the formula tumor volume (mm^3)=(a×b^2/2) where ‘b’ is the smallest diameter and ‘a’ is the largest perpendicular diameter. **P-value <0.01 (Two-sided T-test).

In series [7] the test system is multiple myeloma cells (MM1S cells, RPMI-8226 cells). In words: Treatment of multiple myeloma cells with a combination of drugs. The format is cell-based. The following applies: 72 hours, Cell Titer Glo, combination indices (Calcusyn). How it is done: At the end of the incubation, cell viability was measured using Cell Titer Glo as per manufacturer's protocol (Promega, Madison, Wis.). Measured values for compound-treated cells were normalized to DMSO-treated cells and data is reported as a cell survival ratio with a value of 1 (one) corresponding to maximum cell survival and a value of 0 (zero) corresponding to no cell survival. Cell survival ratios for all compound treatments are represented as bar graphs. Combination indices were calculated using the Calcusyn program (biosoft.com) and reported for individual mixtures of compound 670 and pomalidomide [POM] (panels A &C) and individual mixtures of compound 670 and dexamethasone [DEX] (panels B & D). Compound mixtures that produced a synergistic anti-tumor activity are highlighted.

The mark [8] stands for this setting: 50 mg/kg, 50 mg/kg oral, Eudragit L100-55 solid dispersion, Suspension.
The mark [9] stands for this setting: 25 mg/kg oral, 20% HPBCD/10 mM Citrate pH 2.0, Solution.
[10] abbreviates: 80 mg/kg oral, 65% HPBCD/10 mM Citrate pH 2.6, Solution.
Where [11] appears, read: 250 mg/kg oral, 40% HPBCD/10 mM Citrate pH 2.2, Solution.
[12] abbreviates: 500 mg/kg oral, 40% HPBCD/10 mM Citrate pH 2.2, Solution.
Where [13] appears, read: 100 mg/kg, 100 mg/kg oral, 25% HPBCD/10 mM Citrate pH 2.2, Solution.
Where [14] appears, read: 200 mg/kg, 200 mg/kg oral, 25% HPBCD/10 mM Citrate pH 2.2, Solution.
Setting [15] is: 50 mg/kg oral, Eudragit L100-55 solid dispersion, Suspension.
The mark [16] stands for this setting: 50 mg/kg, 50 mg/kg oral, 1% NMP/99% Gelucire, Solution.
Where [17] appears, read: 50 mg/kg, 50 mg/kg oral, 2% NMP/98% Gelucire, Solution.
[18] abbreviates: 50 mg/kg, 50 mg/kg oral, 0.5% CMC/0.1% PS80, Suspension.
Where [19] appears, read: 50 mg/kg, 50 mg/kg oral, Capryol PGMC, Suspension.

One may read the pIC50 as the negative decadic logarithm of the IC50, by convention in mol/L. A word on the Cmax: it is the peak of the concentration-time curve. What is called Tmax is the time at which the peak concentration occurs.

pIC50: −log10 of the molar value. Where two headings read alike, the source gives them in different places.

On to `O=C(Cc1ccccc1)Nc1ccc(CCCCc2nnc(NC(=O)Cc3ccccc3)s2)nn1` [Compound 295], for which the pIC50 in series [1] (P493-6, 72 h) is 7.41. Moreover, the “Significant Efflux” value in series [2] is “Yes (efflux ratios being significant when greater than or equal to 3 when the Papp (B→A) was greater than or equal to 1×10^−6 cm/s)”. In addition, in series [3] (setting [8]), the peak level (Cmax) was 0.02 µM and the Tmax was 6 h.

Take `O=C(Cc1cccc(OC(F)(F)F)c1)Nc1ccc(CCCCc2nnc(NC(=O)Cc3ccccn3)s2)nn1` [Compound 670]: the tumor size result in series [4] and in series [6] was “reduced tumor size” each time. In series [1] (72 h), the pIC50 was 7.52. The Cmax in series [5] (setting [9]) came to 4.4 µM; in series [5] (setting [10]) it was 12.5 µM; in series [5] (setting [11]), 9.9 µM; in series [5] (setting [12]), 15.3 µM; in series [3] (setting [13]) it was 5.75 µM; in series [3] (setting [14]), 5.05 µM. Further, the Tmax in series [5] (setting [9]) came out at 1 h; in series [5] (setting [10]), 1 h; in series [5] (setting [11]) it was 24 h; in series [5] (setting [12]), 2 h; in series [3] (setting [13]), 1 h; in series [3] (setting [14]) it was 1 h. Further, the “Significant Efflux” value in series [2] is recorded as “Yes (efflux ratios being significant when greater than or equal to 3 when the Papp (B→A) was greater than or equal to 1×10^−6 cm/s)”. For the same molecule, the “anti-tumor effect in combination with dexamethasone” value in series [7] was “synergizes”. The “anti-tumor effect in combination with pomalidomide” value in series [7] is “synergizes”.

As for `O=C(Cc1cccc(OC(F)(F)F)c1)Nc1ccc(CCCCc2nnc(NC(=O)Cc3ccccc3)s2)nn1` [Compound 585], the negative-log IC50 (pIC50) in series [1] (P493-6, 72 h) is 7.15. In addition, the Cmax was found to be 1.15 µM in series [5] (setting [15]), 5.16 µM in series [3] (setting [16]) and 0.93 µM in series [3] (setting [8]). Besides, the Tmax in series [5] (setting [15]) came to 2 h; in series [3] (setting [16]) it was 1 h; in series [3] (setting [8]), 3 h. Further, the “Significant Efflux” value in series [2] is listed as “Yes (efflux ratios being significant when greater than or equal to 3 when the Papp (B→A) was greater than or equal to 1×10^−6 cm/s)”.

With `O=C(Cc1cccc(OC(F)(F)F)c1)Nc1ccc(CCCCc2nnc(NC(=O)C(O)c3cccc(Cl)c3)s2)nn1` (stereo not shown) [Compound 447], the pIC50 in series [1] (P493-6, 72 h) was 7.80. The “Significant Efflux” value in series [2] is reported as “Yes (efflux ratios being significant when greater than or equal to 3 when the Papp (B→A) was greater than or equal to 1×10^−6 cm/s)”. In series [3] (setting [17]), the Cmax was determined as 1.13 µM and the Tmax was 1 h.

With `O=C(Cc1ccccc1)Nc1ccc(CCCCc2nnc(NC(=O)C(O)c3cccc(Cl)c3)s2)nn1` (stereo not shown) [Compound 318], the pIC50 in series [1] (P493-6, 72 h) is 7.77. For the same molecule, the “Significant Efflux” value in series [2] was “Yes (efflux ratios being significant when greater than or equal to 3 when the Papp (B→A) was greater than or equal to 1×10^−6 cm/s)”. The Cmax was 0.01 µM in series [3] (setting [18]) and 0.08 µM in series [3] (setting [19]). The Tmax in series [3] (setting [18]) was 1 h; in series [3] (setting [19]) it was 3 h.

The values above are taken from patent US10793535B2, “Heterocyclic glutaminase inhibitors” (Calithera Biosciences, Inc., priority 2012, dated 2020).
